These results are taken from patent publication US10329542B2, “HBV RNAse H purification and enzyme inhibitors” (Saint Louis University, priority 2012, dated 2019).

One may read the CC50 as the concentration giving 50% cytotoxicity. Higher therefore signals lower toxicity to the cells. Usually IC50 stands for the concentration needed to halve the response being measured.

Data set [1] addresses T1, chimeric HBV:HIV RNAseH HHC1 (Hepatitis B virus genotype D subtype ayw, UniProt P03156, DELINS787-795VNQIIEQLIVK/INS679M).
T1 construct: HHC1 is an HRHPL derivative; made in house; host or cells: E. coli BL21 codon+
The data set is described as follows: Oligonucleotide-directed RNAseH cleavage assay, chimeric HHC1. As to conditions: read-out: Residual activity at 10 uM, HHC1. It counts as biochemical. In short, it runs like this: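 Bacterially expressed C-terminal His-tagged HHC1 (HRHPL, HBV genotype D pol 684-845, with residues 800-808 swapped for HIV RNAseH helix D) extract mixed with internally 32P-labeled DRF+ RNA and oligonucleotide D2507- (D2526+ negative control), 42 °C, 90 min. Products resolved by 12% SDS-PAGE, autoradiographed and quantified; compounds added in DMSO, DMSO vehicle control.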

In the next data set the test system is HepG2 cells. Put plainly: MTS cytotoxicity assay in HepG2 cells. It counts as cell-based, human. As to conditions: four days. As for the experimental part: Toxicity of βTJ in Huh7 cells was determined with 3-(4,5-dimethylthiazol-2-yl)-5-β-carboxymethoxyphenyl)-2-(4-sulfophenyl)-2H-tetrazolium (MTS) assays that measures mitochondrial dysfunction employing the Cell Titre 96 aqueous nonradioactive cell proliferation assay (Promega), and with the CytoTox-Glo assay (Promega) that reflects cellular integrity. Huh7 and HepG2 cells (1×10^4) were plated in 96-well tissue culture plates, medium containing βTJ at the indicated concentrations was added the next day, the medium was replaced with fresh medium containing βTJ after two days, and after four days the MTS or CytoTox-Glo assays were conducted according to the manufacturer's instructions.

The next data set addresses HIV-1 RNAseH (Human immunodeficiency virus type 1 group M subtype B, UniProt P04585). To be noted: read-out: IC50 against the HIV RNAseH; cited from earlier work.

SMILES strings stand for the structures.

T1 sequence (P03156 680-786, added parts left off, stated change not applied): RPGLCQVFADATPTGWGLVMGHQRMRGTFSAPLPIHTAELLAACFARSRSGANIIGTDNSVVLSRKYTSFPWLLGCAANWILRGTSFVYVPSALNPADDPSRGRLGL

In the case of `COc1cc2c(cc1Cc1cccc(Cl)c1F)c(=O)c(C(=O)O)cn2[C@H](CO)C(C)C` [Compound 10, Elvitegravir, reference compound], the remaining activity at 10 µM in data set [1] was determined as 35 ± 7%.

With `Cc1nnc(C(=O)NC(C)(C)c2nc(C(=O)NCc3ccc(F)cc3)c(O)c(=O)n2C)o1` [Compound 11, Raltegravir, reference compound], the remaining activity at 10 µM in data set [1] stood at 59 ± 23%.

In the case of `CC(C)c1ccc(O)c(=O)c(O)c1` [Compound 46, beta-thujaplicinol], the midpoint of cytotoxicity in the data set with HepG2 cells, the CC50, lay at 16.7 ± 3.7 µM. Besides, the IC50 at HIV-1 RNAseH was 0.2 to 0.3 µM.
